From patent publication US20210038563A1, “NEW SPIRONOLACTONE FORMULATIONS AND THEIR USE” (Apidel SA, priority 2018, published 2021)

Legend:
MR = conditions: Corvol et al. [19]; cited from earlier work
[1] = target: mineralocorticoid receptor; conditions: Sutanto et al. [20]; read-out: half maximal inhibitory concentrations (IC50); cited from earlier work
[2] = test system: dexamethasone-induced delayed corneal wound healing; test: Corneal re-epithelialization evaluation (fluorescein test) after corneal de-epithelialization; assay type: in vivo, New Zealand white rabbit; conditions: Day 4; mean ± SD
Procedure: Fifty male albino New Zealand rabbits weighing approximately 2.3-3.0 kg were included for this study (Iris Pharma, France). Animals were housed individually in standard cages, under identical environmental conditions. The temperature was kept at 15-21° C. and the relative humidity was >45%. Rooms were continuously ventilated (>15 air volumes per hour). Temperature and relative humidity were continuously controlled and recorded. Animals were routinely exposed (in-cage) to a 10-200 1× light in a 12-hour light/dark cycle (from 7:00 a.m. to 7:00 p.m.). Animals had enrichment and free access to food (150 g/day) and were allowed water ad libitum. All animals were healthy and free of clinically observable ocular abnormalities throughout the study. […]
The animals were anesthetized by an intramuscular injection of a ketamine-xylazine mixture. […] De-epithelialization was monitored by fluorescein staining. […]
The size of the corneal wound was evaluated using the fluorescein test immediately after ocular debridement and once a day before the first instillation of the day. A baseline was recorded before the de-epithelialization. […] Images of the corneal lesion (area stained by fluorescein) were taken using a CCD camera and analyzed using image J software. […]

[3] = [26, 27]; cited from earlier work

Structure (SMILES): C[C@]12CCC(=O)C=C1C=C[C@@H]1[C@@H]2CC[C@@]2(C)[C@H]1CC[C@@]21CCC(=O)O1 [CAN, Canrenone]
- Affinity for the MR, fold lower as compared to SPL (MR): 10 fold

Structure (SMILES): C[C@]12CCC(=O)C=C1C=C[C@@H]1[C@@H]2CC[C@@]2(C)[C@H]1CC[C@@]2(O)CCC(=O)O [CANK, potassium canrenoate]
- Affinity for the MR (MR): very low affinity
- IC50 [1]: > 1000 nM

Structure (SMILES): C[C@@H]1C[C@H]2[C@@H]3CCC4=CC(=O)C=C[C@]4(C)[C@@]3(F)[C@@H](O)C[C@]2(C)[C@@]1(O)C(=O)CO [DXM, Dexamethasone]
- Mean percentage of re-epithelialization [2]: 84.6±13.9%

Structure (SMILES): CC(=O)S[C@@H]1CC2=CC(=O)CC[C@]2(C)[C@H]2CC[C@@]3(C)[C@@H](CC[C@@]34CCC(=O)O4)[C@H]12 [SPL, 7α-Acetylthio-17α-hydroxy-3-oxopregn-4-ene-21-carboxylic acid γ-lactone]
- plasma half-life [3]: 1.4 h

Structure (SMILES): CS[C@@H]1CC2=CC(=O)CC[C@]2(C)[C@H]2CC[C@@]3(C)[C@@H](CC[C@@]34CCC(=O)O4)[C@H]12 [TMSPL, 7α-thiomethylspironolactone]
- plasma half-life [3]: 13.8 h
